Consider 8 molecules from ChEMBL document CHEMBL1201862, “PubChem BioAssay data set” (2004).

Some test systems named below: DU-145; T47D; UACC-257; DLD-1; HOP-18; DMS-114; RXF 631; BT-549.
Holding throughout (assay): NCI tumour cell line growth inhibition, 48 h

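Method: 48-hour compound exposure of cells in 96-well plates, five concentrations, linear interpolation of endpoints. GI50 is the concentration that inhibits growth by half.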 Active and inactive are the calls of the source. Cut-off read from the data, not from the text of the source: active = GI50 up to about 1.1 µM and inactive = higher.

As to `N#CCCC1C(C#N)C2(Cl)CC1(Cl)C(Cl)=C2Cl` (stereo not given), the GI50 in the assay with DU-145 and in the assay on T47D was > 10 µM (inactive) throughout.

Take `CCCCOC(=O)CN1C(=O)c2ccccc2C1=O`: the GI50 with UACC-257 and in the assay on DLD-1 was > 100 µM (inactive) each time.

As for `CCC1=NC(C(F)(F)F)(C(F)(F)F)N=C(N2CCOCC2)O1`, the GI50 in the assay on UACC-257, in the assay with DU-145 and in the assay with T47D was > 100 µM (inactive) throughout.

`CC1(C)CCc2cc3c(-c4ccccc4)cc(=O)oc3cc2O1`: the GI50 in the assay on HOP-18 is 47.8 µM (inactive); with DMS-114, > 100 µM (inactive); with RXF 631, > 100 µM (inactive); in the assay on DLD-1, > 100 µM (inactive).

With `CCOC(=O)c1csc(NC(=O)CN(C)C)n1`, the GI50 in the assay with UACC-257, in the assay with DU-145 and in the assay with T47D was > 100 µM (inactive) each time.

In the case of `O=c1n(CC2CO2)c2ccccc2n1CC1CS1` (stereo not given), in the assay on DMS-114, the GI50 was 77.8 µM (inactive).

In the case of `Cc1ccc(Cl)cc1/N=N/C(=O)NNc1cc(Cl)ccc1C`, the GI50 in the assay on BT-549 was 18.2 µM (inactive); in the assay on DU-145 it was 21.4 µM (inactive); with T47D it was 33.3 µM (inactive).

Consider `O=c1c2ccccc2[nH]c2cc(O)cc(O)c12`, for which the values for the GI50 in the assay on HOP-18 and with UACC-257 were > 100 µM (inactive) and 45 µM (inactive), respectively.
